The assay deals with U87 shCTRL cells. The assay is described as follows: 2D random cell motility assay, U87 shCTRL. Type of assay: cell-based, human. The conditions noted are these: 1.4 µM of compound 2, 1.6 µM of compound 9. The procedure: Cell motility was recorded by time-lapse videomicroscopy, as previously described. Briefly, cells were trypsinized and then seeded on Fibronectin pre-coated 24-well plates at 10^4 cells per well and allowed to adhere at 37 °C for 2 h in a 5% CO2 incubator. The cells were briefly rinsed in imaging medium (EMEM containing 10% FBS) to remove unattached cells before imaging. For conditions using compounds, agents were added to cells 15 min before launching the recording of the time-lapse series. Next, the plates were placed on an inverted wide-field Nikon microscope equipped with a 10× air objective (NA = 0.3) at 37 °C in 5% CO2. For all conditions, 61 frames of four fields were acquired using a CCD camera (Coolsnap HQ camera, Photometrics, Tucson, AZ, USA) driven by NIS elements AR 2.30 software (Nikon, Heidelberg, Germany). Migration tracks (n = 60–80 cells) were used to calculate total migration distance, distance to origin, velocity, and directional persistence of cell migration. Velocity was calculated as the total migration distance divided by 600 (600 min is total time of experiment). The distance to origin was determined as the net translocation between the initial and the final position. Directional persistence was calculated as the ratio of the distance to origin to that of the total distance migration.

Take `Nc1nc2ccc3oc(-c4cccc(Oc5ccccc5)c4)cc(=O)c3c2s1` [Compound 2, 2-amino-7-(3-phenoxyphenyl)-9H-chromeno [6,5-d]thiazol-9-one]: the “decrease in distance to origin” value was 25% and the decrease in velocity worked out at 15%.

The record behind these values is publication PMC10606064, “2-Aminothiazole-Flavonoid Hybrid Derivatives Binding to Tau Protein and Responsible for Antitumor Activity in Glioblastoma” (International Journal of Molecular Sciences, 2023).
